Data on 13 molecules can be found in ChEMBL document CHEMBL4627369, “Synthesis of novel of 2, 5-disubstituted 1, 3, 4- oxadiazole derivatives and their in vitro anti-inflammatory, anti-oxidant evaluation, and molecular docking study” (Bioorg Med Chem Lett, 2020).

The nature of experiment [1]: Antioxidant activity assessed as DPPH radical scavenging activity. It counts as functional.
The nature of experiment [2]: Antioxidant activity assessed as nitric oxide radical scavenging activity. The experiment is classed as functional.

As to `Fc1ccc2c(c1)CCC(c1nnc(-c3cccc(Cl)c3)o1)O2` (stereo unspecified), the values for the IC50 in experiment [1] and in experiment [2] were 23.1 µM and 84.8 µM, respectively.

For `O=[N+]([O-])c1ccc(-c2nnc(C3CCc4cc(F)ccc4O3)o2)cc1` (stereo unspecified), the IC50 amounted to 28.7 µM in experiment [1] and 84.8 µM in experiment [2].

`Fc1ccc2c(c1)CCC(c1nnc(-c3cnccn3)o1)O2` (stereo unspecified): the IC50 is 73.4 µM in experiment [1] and 87 µM in experiment [2].

Regarding `O=C1O[C@H]([C@@H](O)CO)C(O)=C1O` [ASCORBIC ACID], the values for the IC50 in experiment [1] and in experiment [2] were 44.2 µM and 42.6 µM, respectively.

For `COc1cc(-c2nnc(C3CCc4cc(F)ccc4O3)o2)cc(OC)c1OC` (stereo unspecified), the IC50 in experiment [1] came out at 43.2 µM; in experiment [2], 87 µM.

Turning to `Fc1ccc2c(c1)CCC(c1nnc(-c3ccc(Cl)cc3)o1)O2` (stereo unspecified), the IC50 in experiment [1] amounted to 17.2 µM; in experiment [2], 85.9 µM.

For the molecule `Fc1ccc2c(c1)CCC(c1nnc(-c3ccccc3Cl)o1)O2` (stereo unspecified), the figures for the IC50 in experiment [1] and in experiment [2] were 40.8 µM and 88 µM, respectively.

Take `Fc1ccc2c(c1)CCC(c1nnc(C3CCc4cc(F)ccc4O3)o1)O2` (stereo unspecified): the IC50 in experiment [1] was 29 µM; in experiment [2], 87 µM.

As for `Fc1ccc2c(c1)CCC(c1nnc(-c3cc(F)c(F)c(F)c3F)o1)O2` (stereo unspecified), the figures for the IC50 in experiment [1] and in experiment [2] were 29 µM and 85.9 µM, respectively.

Regarding `O=c1cc(-c2nnc(C3CCc4cc(F)ccc4O3)o2)oc2ccc(F)cc12` (stereo unspecified), the figures for the IC50 in experiment [1] and in experiment [2] were 34.9 µM and 73.9 µM, respectively.

As for `Nc1ccc(-c2nnc(C3CCc4cc(F)ccc4O3)o2)cc1` (stereo unspecified), the results for the IC50 in experiment [1] and in experiment [2] were 34.9 µM and 89.1 µM, respectively.

As for `Fc1ccc2c(c1)CCC(c1nnc(-c3cn(Cc4c(F)cccc4F)nn3)o1)O2` (stereo unspecified), the IC50 was determined as 23.1 µM in experiment [1] and 88 µM in experiment [2].

For `Fc1ccc2c(c1)CCC(c1nnc(-c3ccccc3)o1)O2` (stereo unspecified), the IC50 in experiment [1] is 28.7 µM; in experiment [2] it was 85.9 µM.

In general, IC50 refers to the concentration at which inhibition is half-maximal.
